{"source": "paper PMC3923716", "about": "(PLoS Neglected Tropical Diseases, 2014)", "key": {"[1]": {"biological_target": "T1, B. pahangi Hsp90 (Brugia pahangi, UniProt O61998)", "T1 construct": "Adult worms of B. pahangi were obtained from infected jirds; from tissue; host or cells: whole adult B. pahangi worms, ground and lysed in HFB buffer", "test": "Competition FP assay (displacement of Cy3B-GA), B. pahangi lysate", "format": "binding", "details": "FP assay; best fit (95% confidence intervals); read-out: B. pahangi IC50", "method": "Adult worms of B. pahangi were obtained from infected jirds after 3–4 months, exactly as described previously and were frozen in liquid nitrogen, ground in a pestle and mortar to a fine powder and re-suspended in an appropriate volume of HFB assay buffer (20 mM HEPES, pH 7.3, 50 mM KCl, 5 mM MgCl2, 20 mM Na2MoO4, 1% NP40). Protein concentrations were estimated using the BioRad protein assay. At this point lysates were freeze-dried for shipping to the USA.\n(§1) The FP assay was set up essentially as described previously, [25]. […] The equilibrium binding of Cy3B-GA and recombinant human Hsp90α (Enzo Life Sciences, Farmingdale, NY USA) or parasite lysate was determined by creating a two-fold dilution series of protein/extract for an eleven-point curve with the first column containing no protein. […] All FP values are expressed in millipolarization (mP) units with the mP value of free Cy3B-GA probe set to 50. Equilibrium binding constants were determined by nonlinear regression using a one-site binding model (GraphPad Prism software).\n(§2) The relative binding affinities of inhibitors to human or parasite-derived Hsp90 was determined using competitive FP binding assays. […] For parasite-derived Hsp90, an amount of parasite lysate resulting in 50% of maximal Cy3B-GA binding was used. […] Stock solutions of each compound were prepared in DMSO at a concentration of 10 mM and 3-fold serial dilutions prepared in DMSO for eleven point curves. […] The final concentration of Cy3B-GA was 6 nM and the final DMSO concentration in all wells was 0.5%. Free Cy3B-GA (mP set to 50) and buffer only (background) wells were included as controls on each plate. Plates were incubated at 8°C with gentle shaking for 20 h."}, "[2]": {"biological_target": "B. malayi Hsp90 (Brugia malayi, UniProt A0A0H5S7Y7)", "test": "Competition FP assay (displacement of Cy3B-GA), B. malayi lysate", "format": "binding", "details": "best fit (95% confidence intervals), read-out: B. malayi IC50", "method": "as §1, §2"}, "[3]": {"tested_on": "Brugia Hsp90", "test": "Competition FP assay, Brugia Hsp90 (species not separated)", "format": "binding", "details": "read-out: IC50 for binding to Brugia Hsp90", "method": "as §1, §2"}, "[4]": {"tested_on": "B. pahangi Mf (microfilariae)", "test": "Mf viability in vitro", "format": "cell-based, Brugia pahangi", "details": "Mf", "method": "As adult Brugia worms are limited in numbers, initial experiments assessed the effect of each drug on Mf viability. Mf were purified from infected animals essentially as described previously. In brief, following lavage of the peritoneal cavity of an infected animal with Hanks Balanced Salt Solution (HBSS) pre-warmed to 37°C, Mf were collected by centrifugation and then purified from host cells by centrifugation through lymphoprep (Sigma). This procedure was repeated twice. Mf were collected from the pellet, washed twice in HBSS and once in worm culture medium (WCM) which comprised RPMI 1640, (Invitrogen Cat No: 52400), containing 5% heat inactivated fetal calf serum, 1% glucose, 100 units/ml penicillin and 100 µg/ml streptomycin (all Invitrogen). Mf were then dispensed into the wells of a 24-well plate to give approximately 200 Mf in 2.0 ml, using a single well for each drug concentration. All procedures were carried out using aseptic techniques. The five novel compounds, plus GA and medium alone controls, were tested three times against Mf over the full range of concentrations."}, "[5]": {"tested_on": "adult female B. pahangi", "test": "Adult female worm assay in vitro (Mf output and adult viability), continuous exposure", "format": "cell-based, Brugia pahangi", "method": "For adult worm assays, adult female B. pahangi, 3–4 months old, were incubated individually in 2.0 ml of WCM overnight in 24-well plates and pre-screened for Mf production. […] For the drug experiments, six female worms of B. pahangi for each concentration of drug were cultured individually in 24-well plates in 2.0 ml of WCM containing drug, or carrier alone (DMSO) at a concentration equal to that in the highest concentration of drug. In some experiments, GA was used as a positive control. Initially, all five compounds were tested over selected concentrations starting at 2 µM to 100 nM (see Results for details). For Hsp90 inhibitors, Mf output by individual female worms is a sensitive indicator of adult worm viability and, in most experiments, was assessed at 72 h. In addition, adult worms were examined microscopically on a daily basis for 7–10 days to determine whether lower concentrations of drugs had any effects over a longer period of incubation. Results are expressed as mean Mf output ± SD over a 72 h period. Statistical significance between groups was calculated using the Mann Whitney test with P values<0.05 being considered significant."}, "[6]": {"tested_on": "male worms (B. pahangi)", "test": "Adult male worm exposure in vitro", "format": "cell-based, Brugia pahangi", "details": "100 nM, day 7 of exposure", "method": "The remaining worms although alive, were extremely sluggish. […] Worms that were dying tended to burst and release their uterine contents and wells contained many embryonic stages in addition to Mf. […] By day 7 of exposure 100% of male worms exposed to 100 nM drug were dead."}, "[7]": {"tested_on": "L3 stage of B. pahangi", "test": "L3 viability in vitro", "format": "cell-based, Brugia pahangi", "details": "6 days exposure", "method": "L3 stages were harvested from mosquitoes nine days post-infection. L3 were picked individually with a fine glass pipette, counted and washed three times in HBSS containing 1000 units/ml of penicillin and 1000 µg/ml streptomycin by sedimentation at room temperature. 20–30 L3 per well were plated out in duplicate in 24-well plates in 2.0 ml of WCM containing drug, or carrier alone (DMSO) and cultured at 37°C for up to 7 days. […] This experiment was repeated twice."}, "[8]": {"tested_on": "adult female B. pahangi", "test": "Short 24 h exposure of adult female worms, then medium alone", "format": "cell-based, Brugia pahangi", "details": "for mean Mf production: 24 h in drug and 24 h in medium alone; for lowest concentration with significantly fewer Mf: 250, 25, 10 nM tested"}, "[9]": {"tested_on": "adult female B. pahangi and Mf", "test": "In vivo testing: adult female worms transplanted into the peritoneal cavity of BALB/c mice", "design": "species or system BALB/c mouse", "details": "50 mg/Kg i.p. at day 0, 3 and 7", "source_text": "Adult worms were removed from the peritoneal cavity of infected jirds and rinsed in HBSS. 10 adult female worms were transplanted into the peritoneal cavity of each of ten male BALB/c mouse using standard methods, [28]. Adult worms were transferred into the peritoneal cavity of anaesthetized mice using a blunted glass hook. Not all mice received the full quota of 10 worms (see Table 1). […] This dose was selected on the basis of previous studies in a mouse xenograft model. […] The condition of any adult worms recovered was noted. Mf in the first 12 ml of peritoneal washings were pelleted by centrifugation and fixed in 2% formalin in water and stored at 4°C until counted. Mice were weighed at each time point to monitor any possible weight loss."}, "[10]": {"details": "single dose of 50 mg/Kg, intra-peritoneal route; cited from earlier work"}, "[11]": {"details": "recovery 9 days after last dose"}}, "note": "Where “and” joins values, the source holds several entries; their conditions need not be identical. Equal values may be shown once. Marks after values point to notes of the source that are not given here."}
{"smiles": "CCNC(=O)c1noc(-c2cc(C(C)C)c(O)cc2O)c1-c1ccc(CN2CCOCC2)cc1", "note": "[NVP-AUY922]", "values": [{"measurement": "IC50", "setting": "[1]", "result": 0.64, "unit": "nM"}, {"measurement": "IC50", "setting": "[2]", "result": 0.95, "unit": "nM"}, {"measurement": "IC50", "setting": "[3]", "result": "~1", "unit": "nM"}, {"measurement": "% death by day 7", "setting": "[4]; 0.976 nM", "result": 75, "unit": "%"}, {"measurement": "% death by day 7", "setting": "[4]; 1.95 nM", "result": 100, "unit": "%"}, {"measurement": "adult worm survival at lower concentrations", "setting": "[5]; 10 and 5.0 nM, motility affected", "result": "did not die"}, {"measurement": "lowest concentration with significant inhibitory effect on Mf output", "setting": "[5]; 72 h exposure, titrated 500 nM to 1.0 nM", "result": 10, "unit": "nM"}, {"measurement": "adult worms killed", "setting": "[5]; 6 days exposure, 25 nM", "result": 50, "unit": "%"}, {"measurement": "adult worms dead", "setting": "[5]; 6 days exposure, 25 nM, typical experiment", "result": "3/6"}, {"measurement": "adult worms dead", "setting": "[5]; 6 days exposure, 50 nM, typical experiment", "result": "4/6"}, {"measurement": "adult worms dead", "setting": "[5]; 6 days exposure, 100 nM and above", "result": "all adult worms were dead"}, {"measurement": "lowest concentration with significant decrease in Mf output", "setting": "[5]; 6 days exposure, not significant at 1.0 nM", "result": "5.0 nM and 5 nM"}, {"measurement": "concentration with significant effect on Mf output", "setting": "[5]; initial screen 2.0 µM to 100 nM, adult female worms", "result": "≤ 100", "unit": "nM"}, {"measurement": "male worms dead", "setting": "[6]", "result": 100, "unit": "%"}, {"measurement": "effect on L3", "setting": "[7]; 1 nM or below", "result": "no effect"}, {"measurement": "L3 dead", "setting": "[7]; 5.0 nM, remainder moving very slowly", "result": "approximately 30%"}, {"measurement": "L3 dead", "setting": "[7]; all concentrations down to and including 10 nM", "result": 100, "unit": "%"}, {"measurement": "mean Mf production", "setting": "[8]; 10 nM, not significant vs DMSO", "result": "910±674", "unit": "Mf"}, {"measurement": "mean Mf production", "setting": "[8]; 25 nM", "result": "100±60", "unit": "Mf"}, {"measurement": "mean Mf production", "setting": "[8]; 250 nM", "result": "11±23", "unit": "Mf"}, {"measurement": "condition of adult worms", "setting": "[8]; 24 h exposure to 10 nM, day 9, vs DMSO controls", "result": "no obvious difference"}, {"measurement": "condition of adult worms", "setting": "[8]; 24 h exposure to 25 nM, day 9", "result": "noticeably more sluggish than control worms"}, {"measurement": "condition of adult worms", "setting": "[8]; 24 h exposure to 250 nM, 9 days in medium alone", "result": "barely moving, but they were still alive"}, {"measurement": "lowest concentration with significantly fewer Mf", "setting": "[8]; 24 h in drug and 48 h in medium alone", "result": 10, "unit": "nM"}, {"measurement": "lowest concentration with significantly fewer Mf", "setting": "[8]; after 24 h in drug", "result": 25, "unit": "nM"}, {"measurement": "Mean no Mf per mouse", "setting": "[9]; first 12 ml of peritoneal washings", "result": "4730±5101"}, {"measurement": "recovery of live worms", "setting": "[9]; range over treated mice", "result": "0–11%"}, {"measurement": "Total number worms recovered", "setting": "[9]; recovered/transplanted", "result": "8/48 ^**"}, {"measurement": "No. mice with live Mf", "setting": "[9]; [11]", "result": "2/5"}, {"measurement": "No. mice with viable worms", "setting": "[9]; [11]", "result": "2/5"}, {"measurement": "No. mice with worms", "setting": "[9]; [11]", "result": "5/5"}, {"measurement": "No. viable worms recovered", "setting": "[9]; [11]", "result": 2}, {"measurement": "viable worms recovered (mean % ± SD)", "setting": "[9]; [11]", "result": "4.4±6.0", "unit": "%"}, {"measurement": "time of maximum plasma level post-dosing", "setting": "[10]", "result": 0.25, "unit": "h"}]}
